According to patent publication US10273313B2, “Multimeric mannosides, a process for preparing the same and their uses as a drug” (CENTRE NATIONAL DE LA RECHERCHE SCIENTIFIQUE, priority 2012, dated 2019):
Entries after “also recorded” stand apart in the source; their conditions may differ.

Assays:
[1] = target: FimH (Escherichia coli, UniProt P08191); assay type: binding; settings: competitive ELISA; for Concentration blocking FimH binding towards oligomannose glycans: RNAseB substrate
Procedure: Journal of the American Society for Mass Spectrometry, 2009. […] Tested compounds were added to wells following with FimH treatment.
Plates were coated with 100 μl of 10 mg/ml solution of RNAse-B in 100 mM carbonate/bicarbonate buffer pH 9.6. […] 2 h. Then washed three times with 10 mM PBS containing 0.05% Tween-20. […] Wells were washed three times with 10 mM PBS+0.05% Tween-20. 100 μl of anti-body conjugated to horseradish peroxidase (1:5000) was added in buffer and incubated for 1 h at room temperature. Then washed three times with 10 mM PBS+0.05% Tween-20. Added 100 μl of TMB and incubated in dark for 2-5 min. The reaction was stopped with 100 μl/well 1N sulfuric acid. Plate absorbance was analyzed at 450 nm using microplate reader.

[2] = tested on: CD-associated E. coli strain AIEC LF82; experiment: Hemagglutination inhibition (HAI) with AIEC LF82, guinea pig erythrocytes; assay type: cell-based, Escherichia coli
Procedure: AIEC adhesion to the gut occurs through the binding of FimH adhesins to the mannosylated glycans of intestinal cells. This scenario was first mimicked here with the highly mannosylated glycocalyx of guinea pig erythrocytes.
A two-fold dilution series of the antagonists was added to wells containing guinea pig erythrocytes and AIEC LF82 bacteria. The formation of the cross-linked network (hemagglutination) due to the interaction of the E. coli FimH adhesins with the glycocalyx of the erythrocytes was prevented at a certain concentration of inhibitors. The lowest concentration at which hemagglutination is still inhibited is defined as the inhibition titer of the antagonist. HM was included in the assay to obtain a relative inhibitory concentration (rIC) for the antagonists by dividing the inhibitory concentration (IC) of the substance of interest by the value for HM. In fact, rICs are more accurate than rough inhibition titers to compare the potency of antagonists evaluated in different assays.

[3] = tested on: AIEC strain LF82 adhesion to T84 intestinal epithelial cells; experiment: Adhesion assay on T84 cells with thiazolylaminomannosides (Example 22.3); assay type: cell-based, Escherichia coli; settings: for Inhibitory effect on adhesion: 100 nM; for inhibition at 10 µM: Escherichia coli, Epithelial cell, read-out: Inhibition of adhesion
Procedure: T84 Intestinal Epithelial cells (overexpressing the receptor CEACAM6) were beforehand incubated for 1 h with the synthetic thiazolylaminomannosides 6-20 (examples 3-17) at different concentrations. Each compound was tested four times at concentrations of 0.1, 1, 10 and 100 μM.
The cells were then infected in the presence of inhibitory compounds by the AIEC strain of reference LF82 for 3 hours at a multiplicity of infection of 10 bacteria to a cell. After 3 h of incubation, the monolayer was washed and the number of AIEC bacteria associated with cells was counted. The level of adhesion of AIEC LF82 strain in the presence of inhibitors (residual adhesion) was expressed relatively to the level of adherence in the absence of any treatment (considered 100%) (FIG. 10).

[4] = tested on: AIEC LF82 bacteria on colonic tissue from transgenic mice expressing human CEACAM6; experiment: Ex-vivo adhesion assay on colonic tissue of CEABAC10 mice; parameters: species or system CEABAC10 transgenic mice; settings: 1 h
Procedure: E. coli strain LF82 was isolated from a chronic ileal lesion of a patient with Crohn's disease (CD). Bacteria were grown routinely in Luria-Bertani (LB) broth overnight at 37° C.
Adhesion assay of AIEC LF82 bacteria were performed using colonic tissue from transgenic mice expressing the human CEACAM6 protein (C. H. Chan, C. P. Stanners “Novel mouse model for carcinoembryonic antigen-based therapy”, Mol Ther. 2004; 9, 775-785). Briefly, 10 to 12-week-old FVB/N CEABAC10 transgenic mice were anesthetized, euthanized by cervical dislocation and colons were removed. Colons were washed twice in phosphate buffer saline (PBS) and were segmented in 4 independent loops of ≈0.6 cm. A volume of 100 μL of LF82 bacteria at 2×10^6 bacteria/mL in PBS or of a mix of LF82 bacteria+D-mannose (1 μmol and 10 μmol) or compound 13 (0.1 μmol and 0.01 μmol) were injected into the loops. Loops were incubated 1 h at 37° C. in an atmosphere containing 5% of CO2, and then opened and washed 4 times in PBS. Tissues were homogenized, appropriately diluted and plated onto Luria-Bertani agar plates containing ampicillin (100 μg/mL) and erythromycin (20 μg/mL) to select AIEC LF82 bacteria.
Entire colons from CEABAC10 mice were collected and washed two times with PBS. The colon was divided in 4 isolated loops and 100 μL of a bacterial suspension containing […] bacteria/mL with or without inhibitory compounds were injected into the loops. D-mannose was tested at a dose of 1 and 10 μmol and monovalent 13 was tested at a dose of 0.01 and 0.1 μmol. After a 1 h-period of incubation, samples were extensively washed and homogenized to numerate adherent bacteria. Bacterial adhesion was expressed as percentages of residual adhesion (100% corresponds to the adhesion in absence of any compound).

[5] = tested on: AIEC LF82 bacteria adhesion to T84 intestinal epithelial cells; experiment: Adhesion assay on T84 cells, pre-, co- and post-incubation protocols (Example 21.2); assay type: cell-based, Escherichia coli; settings: pre-incubation assay
Procedure: E. coli strain LF82 was isolated from a chronic ileal lesion of a patient with Crohn's disease (CD). Bacteria were grown routinely in Luria-Bertani (LB) broth overnight at 37° C. Intestinal epithelial cells T84 derived from colonic adenocarcinoma were maintained in an atmosphere containing 5% CO2 at 37° C. in DMEM/F12 (50/50) medium supplemented with 10% (v/v) heat-inactivated fetal calf serum (FCS), 1% L-glutamine, 100 000 U·l^−1 penicillin, 100 mg·l^−1 streptomycin, 25 μg·l^−1 amphotericin B.
T84 were seeded in 48-well plates at a concentration of 1.5×10^5 cells per well and grown for 48 h. AIEC LF82 bacteria were incubated 1 h with each mannoside prior the cell infection (pre-incubation protocol) or they were added simultaneously onto the cells (co-incubation protocol) in complete medium without antibiotics, containing heat inactivated fetal calf serum (FCS). Heptyl-mannose or compound 2 (example 1) were tested at a dose of 100; 10; 1 or 0.1 μM. D-D-mannose was tested at a dose of 10 000; 1 000; 100 or 10 μM and compound 1 (example 2bis) was tested at a concentration of 500; 100; 10 or 1 μM. Cells were infected with AIEC LF82 bacteria at a multiplicity of infection (MOI) of 10 bacteria per cell for 3 h at 37° C. For the post-incubation protocol, mannosides were incubated with cells for 3 h after bacterial infection. A washing step was realized before this post-incubation to eliminate non-adherent bacteria. Monolayers were washed in phosphate-buffered saline (PBS; pH 7.2) and cells were then lysed with 1% Triton X-100 in deionized water. Samples were diluted and plated onto Luria Bertani agar plates to determine the number of colony-forming units (CFU) recovered from the lysed monolayers. Results were expressed as percentages of residual adhesion, considering adhesion level of AIEC LF82 without mannoside treatment as 100%.

Sequence of FimH (P08191 22-300): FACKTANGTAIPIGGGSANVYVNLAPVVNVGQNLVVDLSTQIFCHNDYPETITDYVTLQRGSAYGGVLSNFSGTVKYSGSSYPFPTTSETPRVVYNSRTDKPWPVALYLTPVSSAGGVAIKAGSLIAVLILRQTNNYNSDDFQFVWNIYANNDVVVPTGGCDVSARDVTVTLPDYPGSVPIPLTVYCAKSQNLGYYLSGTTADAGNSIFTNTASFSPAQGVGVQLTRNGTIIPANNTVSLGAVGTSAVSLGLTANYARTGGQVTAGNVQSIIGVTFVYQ

`O=C(c1ccsc1)c1cnc(N[C@H]2OC(CO)[C@@H](O)[C@H](O)C2O)s1` (mixture of isomers) [Compound 12, 2-(α-D-mannopyranosyl)amino-5-(thiophene-3-carbonyl)thiazole] was tested, and the “Concentration blocking FimH binding towards oligomannose glycans” value [1] was 50 nM.

In the case of `O=C(c1cccs1)c1cnc(N[C@H]2OC(CO)[C@@H](O)[C@H](O)C2O)s1` (mixture of isomers) [Compound 14, 2-(α-D-mannopyranosyl)amino-5-(thiophene-2-carbonyl)thiazole], the “Concentration blocking FimH binding towards oligomannose glycans” value [1] is reported as 50 nM.

For `O=C(c1cnc(N[C@H]2O[C@H](CO)[C@@H](O)[C@H](O)[C@@H]2O)s1)C(F)(F)F` [Compound 7, 2-(α-D-mannopyranosyl)amino-5-trifluoroacetylthiazole], the “Concentration blocking FimH binding towards oligomannose glycans” value [1] was 50 nM and the “Inhibitory potency in HAI (in words)” value [2] was “less potent than HM; also recorded: significantly less potent than 6”.

For `O=C(c1ccccc1)c1cnc(N[C@H]2O[C@H](CO)[C@@H](O)[C@H](O)[C@@H]2O)s1` [Compound 8, 2-(α-D-mannopyranosyl)amino-5-benzoylthiazole], the “Level of inhibition compared to the HM reference” value [1] was “significantly higher level of inhibition”, the “Concentration blocking FimH binding towards oligomannose glycans” value [1] was 5 nM and the “Inhibitory effect on adhesion” value [3] was “significant inhibitory effect”.

In the case of `CC(C)(C)C(=O)c1cnc(N[C@H]2OC(CO)[C@@H](O)C(O)C2O)s1` (stereo partly drawn) [Compound 9, 2-(α-D-mannopyranosyl)amin-5-tert-butylcarbonylthiazole], the “Concentration blocking FimH binding towards oligomannose glycans” value [1] is reported as 50 nM.

With `O=C(c1ccc([N+](=O)[O-])cc1)c1cnc(N[C@H]2O[C@H](CO)[C@@H](O)[C@H](O)[C@@H]2O)s1` [Compound 10, 2-(α-D-mannopyranosyl)amino-5-(4-nitrobenzoyl)thiazole] the “Inhibitory potency in HAI (in words)” value [2] was “less potent than the unsubstituted phenyl analogue 8”, the “Inhibitory effect on adhesion” value [3] was “significant inhibitory effect” and the inhibition at 10 µM [3] was > 90%.

In the case of `Cc1ccc(C(=O)c2cnc(N[C@H]3O[C@H](CO)[C@@H](O)[C@H](O)[C@@H]3O)s2)cc1` [Compound 11, 2-(α-D-mannopyranosyl)amino-5-(4-methylbenzoyl)thiazole], the “Concentration blocking FimH binding towards oligomannose glycans” value [1] is reported as 50 nM.

With `O=C(c1cnc(N[C@H]2OC(CO)[C@@H](O)C(O)C2O)s1)C12CC3CC(CC(C3)C1)C2` (stereo partly drawn) [Compound 16, 5-((3r,5r,7r)-adamantane-1-carbonyl)-2-(α-D-mannopyranosyl)aminothiazole] the “Inhibitory potency in HAI (in words)” value [2] was “significant improvement” and the “Inhibitory effect on adhesion” value [3] was “significant inhibitory effect”.

With `O=C(c1ccncc1)c1cnc(N[C@H]2O[C@H](CO)[C@@H](O)[C@H](O)[C@@H]2O)s1` [Compound 17, 2-(α-D-mannopyranosyl)amino-5-isonicotinoylthiazole] the inhibition at 10 µM [3] was > 90%.

`O=C(c1ccc(Br)cc1)c1cnc(N[C@H]2O[C@H](CO)[C@@H](O)[C@H](O)[C@@H]2O)s1` [Compound 19, 2-(α-D-mannopyranosyl)amino-5-(4-bromobenzoyl)thiazole] was tested, and the inhibition at 10 µM [3] was > 90%.

With `N#Cc1ccc(C(=O)c2cnc(N[C@H]3O[C@H](CO)[C@@H](O)[C@H](O)[C@@H]3O)s2)cc1` [Compound 20, 2-(α-D-mannopyranosyl)amino-5-(4-cyanobenzoyl)thiazole] the “Inhibitory potency in HAI (in words)” value [2] was “less potent than the unsubstituted phenyl analogue 8”.

For `OC[C@H]1O[C@H](O)[C@@H](O)[C@@H](O)[C@@H]1O` [D-mannose, α-D-mannose, reference compound], the Bacterial adhesion ([4]; 1 μmol) was “no decrease”, the “Bacterial adhesion (residual)” value ([4]; dose of 10 μmol) was 41% and the “Concentration leading to decreased adhesion levels of at least 50%” value [5] was 1000 µM. For the same molecule, the Residual adhesion ([3]; 1000 μM) was 51.6%.
